# Results taken from paper PMC11659602, “Discovering covalent cyclic peptide inhibitors of peptidyl arginine deiminase 4 (PADI4) using mRNA-display with a genetically encoded electrophilic warhead” (Communications Chemistry, 2024).
# Values joined by “and” are separate entries in the source; they are usually repeats but may differ in a detail not shown here. Equal values may be shown once. Read-outs that look alike come from different tables or passages of the source. Where a SMILES comes first, the peptide text is derived from it. Bridges are numbered along the chain shown (N, C = ends). [ ]: non-standard residue; d: D form. Orn(fluoroacetimidoyl) = N=C(CF)NCCC[C@H](N)C(=O)O
# How the values were obtained:
# Format in all cases: biochemical
# PADI4 = molecular target: T1, PADI4 (Homo sapiens, UniProt Q9UM07); assay: COLDER inhibition assay, BAEE substrate, with or without 1 h preincubation; conditions: for IC50: COLDER; for remaining activity at 0.003 µM: peptide 0.003 µM; for remaining activity at 0.01 µM: peptide 0.01 µM; for remaining activity at 0.03 µM: peptide 0.03 µM; for remaining activity at 0.1 µM: peptide 0.1 µM; for remaining activity at 0.3 µM: peptide 0.3 µM; for remaining activity at 1 µM: peptide 1 µM; for remaining activity at 3 µM: peptide 3 µM
# T1 construct: His6; made in house
# T1 sequence (Q9UM07 whole entry): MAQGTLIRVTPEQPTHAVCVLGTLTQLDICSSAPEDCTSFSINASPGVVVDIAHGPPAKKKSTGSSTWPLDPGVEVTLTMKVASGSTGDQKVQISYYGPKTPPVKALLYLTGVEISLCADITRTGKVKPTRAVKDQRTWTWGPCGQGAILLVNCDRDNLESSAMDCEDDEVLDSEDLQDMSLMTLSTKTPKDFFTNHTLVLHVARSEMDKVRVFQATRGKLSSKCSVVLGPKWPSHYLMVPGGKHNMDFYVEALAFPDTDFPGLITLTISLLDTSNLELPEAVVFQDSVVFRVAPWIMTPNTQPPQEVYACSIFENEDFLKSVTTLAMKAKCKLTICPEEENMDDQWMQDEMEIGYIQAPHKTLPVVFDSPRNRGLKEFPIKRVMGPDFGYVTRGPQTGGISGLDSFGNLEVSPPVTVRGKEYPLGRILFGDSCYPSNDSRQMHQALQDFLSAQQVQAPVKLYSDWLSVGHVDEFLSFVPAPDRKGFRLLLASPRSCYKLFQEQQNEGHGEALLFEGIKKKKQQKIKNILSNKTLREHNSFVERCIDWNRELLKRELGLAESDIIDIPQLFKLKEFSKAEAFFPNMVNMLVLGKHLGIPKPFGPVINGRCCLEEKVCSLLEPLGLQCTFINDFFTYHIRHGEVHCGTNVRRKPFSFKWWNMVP
# In short: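 50 nM His-PADI4 with peptide (final 0.1× the 0.03-500 µM series), 0.6 mg/mL BSA, 10 mM CaCl2 in 50 mM HEPES, 150 mM NaCl, 2 mM DTT, pH 7.5, with or without 1 h preincubation before 10 mM BAEE. After 30 min at rt, EDTA-quenched; citrulline read colorimetrically at 540 nm; mean ± SEM, ≥2 replicates.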
# PADI1 = molecular target: T2, PADI1 (Homo sapiens, UniProt Q9ULC6); assay: Incubation time-dependent COLDER assay, selectivity; conditions: for PADI1 activity normalised to 0.1% DMSO: quenched after 60 mins
# T2 construct: human PADI1 (residue 1-663); made in house; host or cells: E. coli NiCo21(DE3)
# T2 sequence (Q9ULC6 1-663): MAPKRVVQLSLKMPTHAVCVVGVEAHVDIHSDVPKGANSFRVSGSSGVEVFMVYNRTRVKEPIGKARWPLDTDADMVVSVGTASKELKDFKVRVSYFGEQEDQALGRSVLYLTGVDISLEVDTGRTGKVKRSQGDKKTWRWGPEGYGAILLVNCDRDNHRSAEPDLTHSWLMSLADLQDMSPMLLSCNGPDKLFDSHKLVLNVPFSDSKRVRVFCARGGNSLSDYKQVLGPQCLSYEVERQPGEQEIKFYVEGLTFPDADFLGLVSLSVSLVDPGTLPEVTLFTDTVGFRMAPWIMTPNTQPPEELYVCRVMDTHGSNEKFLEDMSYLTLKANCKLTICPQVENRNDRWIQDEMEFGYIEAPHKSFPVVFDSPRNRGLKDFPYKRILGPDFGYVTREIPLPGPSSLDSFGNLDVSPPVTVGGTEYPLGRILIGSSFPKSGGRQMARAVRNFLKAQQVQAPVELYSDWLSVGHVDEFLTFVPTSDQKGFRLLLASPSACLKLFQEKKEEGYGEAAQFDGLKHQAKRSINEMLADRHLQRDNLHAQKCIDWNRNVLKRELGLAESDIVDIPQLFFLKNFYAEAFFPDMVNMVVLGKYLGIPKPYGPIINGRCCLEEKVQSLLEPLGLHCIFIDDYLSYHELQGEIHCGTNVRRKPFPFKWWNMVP
# Procedure: (§1) To determine KI and kinact of covalent peptide inhibitors, COLDER assays were used[52]. Peptide dilutions were prepared using 5-fold dilutions from 500 µM and 300 µM to 0.8 µM and 2.4 µM, respectively, at 1% DMSO in COLDER buffer (50 mM HEPES, 150 mM NaCl and 2 mM DTT, pH 7.5). The 9 peptide dilutions were added to a 96-well plate, alongside a 1% DMSO control. An equal volume of 10 mM BAEE was added to each well and the solution was homogenised by pipette mixing. This was mixed with 50 nM His-PADI4, 0.6 mg/mL BSA and 10 mM CaCl2, in COLDER buffer, to bring the final volume to 300 µL in each well. Alternatively, His-PAD1 (100 nM) /His-PADI2 (100 nM) /His-PADI3 (250 nM) were used. For assays with PADI1 and PADI3, 10 mM N^α-benzoyl-L-arginine methyl […] (BAME) was used as the substrate instead of BAEE[48],[58],[59]. At 15-minute intervals, for 5 timepoints, 50 µL of solution was taken from each well and quenched with 10 µL EDTA (300 mM). 200 µL of COLDER solution containing 20 mM diacetyl monoxime/2,3-butanedione monoxime (Merck), 0.5 mM thiosemicarbazide (Acros Organics), 2.25 M H3PO4, 4.5 M H2SO4 and 1.5 mM NH4Fe(SO4)2.12H2O was added to each well. Samples were incubated for 20 min at 95 °C before measuring absorbance at 540 nm on a CLARIOstar Plus (BMG LABTECH). IC50 values for each time point were determined using non-linear regression with GraphPad Prism. Incubation time–dependent potency IC50(t) against incubation time was fitted to the Krippendorff equation (below) to determine KI and kinact using a Python script[53],[59]. […] IC50t=KI1+S/KM⋅2−2e^−ηIC50⋅kinact⋅t/ηIC50⋅kinact⋅t−1 WhereηIC50=IC50t/KI1+S/KM+IC50t
# PADI2 = molecular target: T3, PADI2 (Homo sapiens, UniProt Q9Y2J8); assay: as above; conditions: for PADI2 activity normalised to 0.1% DMSO: quenched after 60 mins
# T3 construct: His6; made in house
# T3 sequence (Q9Y2J8 whole entry, species assumed): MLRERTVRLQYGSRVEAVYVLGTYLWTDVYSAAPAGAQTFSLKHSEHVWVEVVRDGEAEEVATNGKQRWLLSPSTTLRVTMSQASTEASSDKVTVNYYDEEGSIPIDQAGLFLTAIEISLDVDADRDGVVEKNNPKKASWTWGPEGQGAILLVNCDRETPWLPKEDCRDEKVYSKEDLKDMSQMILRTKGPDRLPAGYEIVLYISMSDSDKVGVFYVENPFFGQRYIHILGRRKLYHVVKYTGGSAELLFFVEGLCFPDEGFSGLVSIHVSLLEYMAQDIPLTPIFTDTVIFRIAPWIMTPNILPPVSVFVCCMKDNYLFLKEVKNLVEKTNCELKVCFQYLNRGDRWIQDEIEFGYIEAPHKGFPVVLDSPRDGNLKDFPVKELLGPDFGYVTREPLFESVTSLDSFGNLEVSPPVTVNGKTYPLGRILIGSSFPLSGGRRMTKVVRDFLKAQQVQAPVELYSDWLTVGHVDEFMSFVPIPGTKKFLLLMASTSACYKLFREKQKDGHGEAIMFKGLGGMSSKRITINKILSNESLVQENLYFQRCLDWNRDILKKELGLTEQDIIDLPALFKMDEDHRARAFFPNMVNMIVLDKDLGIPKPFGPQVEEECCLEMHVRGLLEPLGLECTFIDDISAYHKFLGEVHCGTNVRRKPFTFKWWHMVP
# Procedure: as §1
# [1] = 1 h preincubation of peptide and PADI4, 10 mM CaCl2, read-out: IC50 Values 1 h preincubation
# [2] = no preincubation of peptide and PADI4, 10 mM CaCl2, read-out: IC50 Values 0 h preincubation
# [3] = T=0, values starred, read-out: PADI4 activity normalised to 0.1% DMSO
# [4] = T=1, read-out: PADI4 activity normalised to 0.1% DMSO
# [5] = T=0, read-out: PADI4 activity normalised to 0.1% DMSO
smiles,measurement,setting,value
"CC(C)C[C@@H]1NC(=O)[C@H](CCCCN)NC(=O)[C@H](CO)NC(=O)[C@H](CO)NC(=O)[C@H](Cc2ccc(O)cc2)NC(=O)[C@H](Cc2c[nH]cn2)NC(=O)[C@H](CCCNC(=N)CF)NC(=O)[C@H](CC(=O)O)NC(=O)[C@H](CC(C)C)NC(=O)[C@@H](Cc2ccc(O)cc2)NC(=O)CSC[C@@H](C(=O)NCC(N)=O)NC(=O)[C@H](Cc2ccc(O)cc2)NC1=O [cP4_15, yLD(2)HYSSKLYCG] ({CH2CO}-[dY]LD[Orn(fluoroacetimidoyl)]HYSSKLYCG-NH2; thioether N-12)",IC50,PADI4; [1],52 ± 2 nM
same,IC50,PADI4; [2],1600 ± 30 nM
same,remaining activity at 0.003 µM,PADI4; [3],95.7%
same,remaining activity at 0.003 µM,PADI4; [4],87.4%
same,remaining activity at 0.01 µM,PADI4; [3],92.2%
same,remaining activity at 0.01 µM,PADI4; [4],88.3%
same,remaining activity at 0.03 µM,PADI4; [5],95.8%
same,remaining activity at 0.03 µM,PADI4; [4],81.5%
same,remaining activity at 0.1 µM,PADI4; [5],88.7%
same,remaining activity at 0.3 µM,PADI4; [5],82.7%
same,remaining activity at 1 µM,PADI4; [5],61.2%
same,remaining activity at 3 µM,PADI4; [5],32.3%
same,PADI1 activity normalised to 0.1% DMSO,PADI1; 0.08 µM,100.799 and 102.269
same,PADI1 activity normalised to 0.1% DMSO,PADI1; 0.24 µM,99.0011 and 78.928
same,PADI1 activity normalised to 0.1% DMSO,PADI1; 0.4 µM,101.598 and 103.89
same,PADI1 activity normalised to 0.1% DMSO,PADI1; 1.2 µM,101.532 and 99.3516
same,PADI1 activity normalised to 0.1% DMSO,PADI1; 2 µM,105.527 and 101.88
same,PADI1 activity normalised to 0.1% DMSO,PADI1; 6 µM,100.999 and 97.3417
same,PADI1 activity normalised to 0.1% DMSO,PADI1; 10 µM,97.1365 and 102.594
same,PADI1 activity normalised to 0.1% DMSO,PADI1; 30 µM,94.4062 and 95.3966
same,PADI1 activity normalised to 0.1% DMSO,PADI1; 50 µM,83.818 and 84.4392
same,PADI2 activity normalised to 0.1% DMSO,PADI2; 0.08 µM,102.409 and 98.7439
same,PADI2 activity normalised to 0.1% DMSO,PADI2; 0.24 µM,101.533 and 89.4278
same,PADI2 activity normalised to 0.1% DMSO,PADI2; 0.4 µM,100.438 and 90.9979
same,PADI2 activity normalised to 0.1% DMSO,PADI2; 1.2 µM,102.409 and 98.4299
same,PADI2 activity normalised to 0.1% DMSO,PADI2; 2 µM,106.46 and 98.5345
same,PADI2 activity normalised to 0.1% DMSO,PADI2; 6 µM,102.299 and 92.9867
same,PADI2 activity normalised to 0.1% DMSO,PADI2; 10 µM,102.956 and 100.105
same,PADI2 activity normalised to 0.1% DMSO,PADI2; 30 µM,100.219 and 95.1849
same,PADI2 activity normalised to 0.1% DMSO,PADI2; 50 µM,83.0292 and 85.4501
"N=C(N)NCCC[C@@H]1NC(=O)[C@H](CCCNC(=N)CF)NC(=O)[C@H](CC(=O)O)NC(=O)[C@H](Cc2ccc(O)cc2)NC(=O)[C@H](CCCCN)NC(=O)[C@H](CO)NC(=O)[C@@H](Cc2ccc(O)cc2)NC(=O)CSC[C@@H](C(=O)NCC(N)=O)NC(=O)[C@H](CC(=O)O)NC(=O)[C@H](CCCNC(=N)N)NC(=O)[C@@H]2CCCN2C(=O)[C@H](CO)NC1=O [cP4_4, ySKYD(2)RSPRDCG] ({CH2CO}-[dY]SKYD[Orn(fluoroacetimidoyl)]RSPRDCG-NH2; thioether N-12)",IC50,PADI4; [1],70 ± 4 nM
same,IC50,PADI4; [2],4400 ± 70 nM
same,remaining activity at 0.003 µM,PADI4; [3],97.2%
same,remaining activity at 0.003 µM,PADI4; [4],84.1%
same,remaining activity at 0.01 µM,PADI4; [3],92.4%
same,remaining activity at 0.01 µM,PADI4; [4],86.9%
same,remaining activity at 0.03 µM,PADI4; [5],93.5%
same,remaining activity at 0.03 µM,PADI4; [4],73.7%
same,remaining activity at 0.1 µM,PADI4; [5],90.5%
same,remaining activity at 0.1 µM,PADI4; [4],29.1%
same,remaining activity at 0.3 µM,PADI4; [5],87.5%
same,remaining activity at 1 µM,PADI4; [5],76.3%
same,remaining activity at 3 µM,PADI4; [5],53.9%
same,remaining activity at 10 µM,"PADI4; peptide 10 µM, T=0, read-out: PADI4 activity normalised to 0.1% DMSO",20.8%
same,remaining activity at 30 µM,"PADI4; peptide 30 µM, T=0, read-out: PADI4 activity normalised to 0.1% DMSO",8.03%
same,"PADI1 activity, normalised (Figure S11c)",PADI1; cP4_4 0.08 µM,100 and 102.598
same,"PADI1 activity, normalised (Figure S11c)",PADI1; cP4_4 0.24 µM,93.9237 and 90.941
same,"PADI1 activity, normalised (Figure S11c)",PADI1; cP4_4 0.4 µM,98.9277 and 105.899
same,"PADI1 activity, normalised (Figure S11c)",PADI1; cP4_4 1.2 µM,98.9873 and 104.073
same,"PADI1 activity, normalised (Figure S11c)",PADI1; cP4_4 2 µM,100.477 and 105.618
same,"PADI1 activity, normalised (Figure S11c)",PADI1; cP4_4 6 µM,94.7578 and 98.4551
same,"PADI1 activity, normalised (Figure S11c)",PADI1; cP4_4 10 µM,89.6942 and 96.559
same,"PADI1 activity, normalised (Figure S11c)",PADI1; cP4_4 30 µM,69.6188 and 76.5449
same,"PADI1 activity, normalised (Figure S11c)",PADI1; cP4_4 50 µM,54.4281 and 69.382
same,"PADI2 activity, normalised (Figure S11c)",PADI2; cP4_4 0.08 µM,99.789 and 100
same,"PADI2 activity, normalised (Figure S11c)",PADI2; cP4_4 0.24 µM,95.7806 and 93.2203
same,"PADI2 activity, normalised (Figure S11c)",PADI2; cP4_4 0.4 µM,102.532 and 106.78
same,"PADI2 activity, normalised (Figure S11c)",PADI2; cP4_4 1.2 µM,102.954 and 112.106
same,"PADI2 activity, normalised (Figure S11c)",PADI2; cP4_4 2 µM,97.2574 and 108.91
same,"PADI2 activity, normalised (Figure S11c)",PADI2; cP4_4 6 µM,96.6245 and 106.586
same,"PADI2 activity, normalised (Figure S11c)",PADI2; cP4_4 10 µM,98.7342 and 104.552
same,"PADI2 activity, normalised (Figure S11c)",PADI2; cP4_4 30 µM,95.8861 and 92.155
same,"PADI2 activity, normalised (Figure S11c)",PADI2; cP4_4 50 µM,84.8101 and 93.6077
